Measured values from US20260034111A1, “NOVEL HETEROCYCLES AS sPLA2-X INHIBITORS” (Cayman Chemical Company Incorporated, priority 2022, published 2026).
Counter-ions that a name gives are not always drawn. Like-named read-outs stand apart in the source and are kept apart here.

Tests used:
Type in all cases: biochemical
[1] = molecular target: T1, recombinant human sPLA2-IIA enzyme (Homo sapiens, UniProt P14555); assay: sPLA2-IIA enzyme inhibition assay (thio-PC substrate, DTNB detection, absorbance 410 nm); details: class symbols; read-out: sPLA2 Type IIa Inhibition (IC50; nM)
T1 construct: made in house; host or cells: E. coli
T1 sequence (P14555 21-144): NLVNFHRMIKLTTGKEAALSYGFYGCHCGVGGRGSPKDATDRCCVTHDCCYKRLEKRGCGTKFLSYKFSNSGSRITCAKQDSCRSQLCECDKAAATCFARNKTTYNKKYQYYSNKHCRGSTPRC
Description: (§1) Screening Compounds for Inhibition of sPLA2-X, sPLA2-V, and sPLA2-IIA Enzyme Activity
(§2) These sPLA2 enzymes hydrolyze the sn-2 acyl chains of glycerophospholipids, resulting in the release of a free fatty acid and a lysophospholipid. In the case of the thio-PC substrate, this enzymatic hydrolysis results in a free sulfhydryl group remaining on the lysophospholipid. This free sulfhydryl reacts with DTNB to produce the chromogenic product 5-nitro-2-thiobenzoic acid (TNB) which can be quantitated by absorbance at 410 nm. The amount of TNB produced reflects the hydrolytic activity of the enzyme.
(§3) The recombinant human sPLA2 groups IIA, V, and X enzymes were expressed in E. coli and purified to >90% purity by standard biochemical methods.
(§4) Procedure of Enzyme Inhibition for sPLA2-X • 1. […] Dilute the test compounds in 100% DMSO by half-log steps in a 96-well dilution plate using columns 1-11 (one compound per row). Column 12 contains DMSO alone with no compound. • 3. Prepare a 3.5 mM thio-PC substrate solution by drying down 7.2 mg of stock thio-PC in ethanol under a gentle stream of N2 gas. When dry, add 4 mL assay buffer (25 mM Tris, pH7.4; 100 mM KCl; 10 mM CaCl2; 0.1% Triton X-100) and warm in a 37° C. water bath for 20 minutes with intermittent vortexing. • 4. Prepare an “enzyme containing” reaction mix with the following components: 20.4 mL assay buffer; 2 mL DTNB (20 mM in 800 mM Tris, pH8.0); and 11.8 mg recombinant human sPLA2-X enzyme (>95% pure) diluted to a total of 0.8 mL assay buffer. • 5. Prepare a “no enzyme” reaction mix with the following components: 477 μL assay buffer and 45 μL DTNB. • 6. Dispense 58 μL “no enzyme” reaction mix into each of 8 wells (columns 23 and 24, rows M-P). • 7. Dispense 58 μL “enzyme containing” reaction mix into all remaining wells on the plate. • 8. From the 96-well compound dilution plate, add 2 μL from each well for each compound to each of 4 wells with “enzyme containing” reaction mix. Columns 23 and 24 on the assay plate will contain only DMSO (vehicle control). […] After compound addition, mix the contents of each well to ensure that the DMSO is evenly distributed in the well. • 9. Cover the plate and incubate in the dark at room temperature for 15 minutes. • 10. Add 10 μL of thio-PC substrate to all wells. The final concentration of thio-PC in the reactions is 0.5 mM. • 11. Cover the plate and incubate in the dark at room temperature for 30 minutes. • 12. Measure the absorbance of all wells at 410 nm. • 13. Determine the mean absorbance of the “no enzyme” wells. Subtract this value from the absorbance values determined for all other wells (these are now background corrected data). • 14. […] Procedure of Enzyme Inhibition for sPLA2-V • 1. […] Dilute the test compounds in 100% DMSO by half-log steps in a 96-well dilution plate using columns 1-11. Column 12 contains DMSO alone with no compound. • 3. Prepare a 3.5 mM thio-PC substrate solution by drying down 7.2 mg of stock thio-PC in ethanol under a gentle stream of N2 gas. When dry, add 4 mL assay buffer (25 mM Tris, pH7.4; 100 mM KCl; 10 mM CaCl2; 0.1% Triton X-100) and warm in a 37° C. water bath for 20 minutes with intermittent vortexing. • 4. Prepare an “enzyme containing” reaction mix with the following components: 20.4 mL assay buffer; 2 mL DTNB (20 mM in 800 mM Tris, pH8.0); and 12 mg recombinant human sPLA2-V enzyme (>95% pure) diluted to a total of 0.8 mL assay buffer. • 5. Prepare a “no enzyme” reaction mix with the following components: 477 μL assay buffer and […]. • 6. Dispense 58 μL “no enzyme” reaction mix into each of 8 wells (columns 23 and 24, rows M-P). • 7. Dispense 58 μL “enzyme containing” reaction mix into all remaining wells on the plate. • 8. From the 96-well compound dilution plate, add 2 μL from each well for each compound to each of 4 wells with “enzyme containing” reaction mix. Columns 23 and 24 on the assay plate will contain only DMSO (vehicle control).

[2] = molecular target: T2, recombinant human sPLA2-V enzyme (Homo sapiens, UniProt P39877); assay: sPLA2-V enzyme inhibition assay (thio-PC substrate, DTNB detection, absorbance 410 nm); details: class symbols; read-out: sPLA2 Type V Inhibition (IC50; nM)
T2 construct: made in house; host or cells: E. coli
T2 sequence (P39877 21-138): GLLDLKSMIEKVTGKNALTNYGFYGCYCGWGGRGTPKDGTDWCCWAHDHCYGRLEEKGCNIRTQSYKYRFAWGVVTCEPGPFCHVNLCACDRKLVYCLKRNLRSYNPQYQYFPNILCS
Description: as §1, §2, §3, §4

[3] = molecular target: T3, sPLA2-X protein (Homo sapiens, UniProt O15496); assay: sPLA2-X enzyme inhibition assay (thio-PC substrate, DTNB detection, absorbance 410 nm); set-up: made in house; host or cells: E. coli; details: class symbols
T3 sequence (O15496 43-165): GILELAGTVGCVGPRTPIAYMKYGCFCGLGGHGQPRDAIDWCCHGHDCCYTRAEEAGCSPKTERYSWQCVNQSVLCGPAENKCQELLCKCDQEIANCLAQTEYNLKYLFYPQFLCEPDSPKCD
Description: as §1, §2, §3, §4

[4] = read-out: sPLA2 Type X Inhibition (IC50; nM)
[5] = sPLA2 Type X Inhibition (IC50; nM)

| IC50 [1] [nM] | IC50 [2] [nM] | IC50 [3, 4] [nM] | Structure (SMILES) | IC50 [3, 5] [nM] |
| --- | --- | --- | --- | --- |
| > 1000 | > 5000 | > 200 | NC(=O)c1cc2ccc(OC(F)(F)F)cc2n1-c1cccc(C[C@H](N)C(=O)O)c1 [Compound 24, (S)-2-amino-3-(3-(2-carbamoyl-6-(trifluoromethoxy)-1H-indol-1-yl)phenyl)propanoic acid TFA salt] |  |
| > 1000 | > 5000 | > 200 | NC(=O)c1oc2ccccc2c1-c1cccc(CCC(=O)O)c1 [Compound 25, 3-(3-(2-carbamoylbenzofuran-3-yl)phenyl)propanoic acid] |  |
| > 1000 | > 5000 | > 200 | CC(C)(C)OC(=O)NCc1cccc(-n2c(C(N)=O)cc3ccc(OC(F)(F)F)cc32)n1 [Compound 26, tert-butyl ((6-(2-carbamoyl-6-(trifluoromethoxy)-1H-indol-1-yl)pyridin-2-yl)methyl)carbamate] |  |
| > 1000 | > 5000 | > 200 | NCc1cccc(-n2c(C(N)=O)cc3ccc(OC(F)(F)F)cc32)n1 [Compound 27, 1-(6-(aminomethyl)pyridin-2-yl)-6-(trifluoromethoxy)-1H-indole-2-carboxamide TFA salt] |  |
| > 1000 | 1500 to 5000 | < 20 | NC(=O)c1cc2ccc(OC(F)(F)F)cc2n1-c1cccc(C2(CC(=O)O)CCC2)c1 [Compound 30, 2-(1-(3-(2-carbamoyl-6-(trifluoromethoxy)-1H-indol-1-yl)phenyl)cyclobutyl)acetic acid] |  |
| > 1000 | < 500 | < 20 | NC(=O)c1cc2ccc(OC(F)(F)F)cc2n1-c1cccc(C2(CC(=O)O)CC2)c1 [Compound 31, 2-(1-(3-(2-carbamoyl-6-(trifluoromethoxy)-1H-indol-1-yl)phenyl)cyclopropyl)acetic acid] |  |
| > 1000 | > 5000 | > 200 | CC(=O)NCc1cccc(-n2c(C(N)=O)cc3ccc(OC(F)(F)F)cc32)n1 [Compound 32, 1-(6-(acetamidomethyl)pyridin-2-yl)-6-(trifluoromethoxy)-1H-indole-2-carboxamide] |  |
| > 1000 | > 5000 | > 200 | CS(=O)(=O)NCc1cccc(-n2c(C(N)=O)cc3ccc(OC(F)(F)F)cc32)n1 [Compound 33] |  |
| > 1000 | > 5000 | > 200 | COC(=O)CC1(c2cccc(-c3c(C(N)=O)sc4ccc(OC(F)(F)F)cc34)c2)CC1 [Compound 35, methyl 2-(1-(3-(2-carbamoyl-5-(trifluoromethoxy)benzo[b]thiophen-3-yl)phenyl)cyclopropyl)acetate] |  |
| > 1000 | 500 to 1500 | < 20 | NC(=O)c1sc2ccc(OC(F)(F)F)cc2c1-c1cccc(C2(CC(=O)O)CC2)c1 [Compound 36, 2-(1-(3-(2-carbamoyl-5-(trifluoromethoxy)benzo[b]thiophen-3-yl)phenyl)cyclopropyl)acetic acid] |  |
| > 1000 | > 5000 | > 200 | NC(=O)c1cc2ccc(OC(F)(F)F)cc2n1-c1cccc(CNC(=O)C(F)(F)F)n1 [Compound 37, 1-(6-((2,2,2-trifluoroacetamido)methyl)pyridin-2-yl)-6-(trifluoromethoxy)-1H-indole-2-carboxamide] |  |
| > 1000 | > 5000 | > 200 | O=C(O)c1cc2ccc(OC(F)(F)F)cc2n1-c1cccc(C2(C(=O)O)CC2)n1 [Compound 39, 1-(6-(1-carboxycyclopropyl)pyridin-2-yl)-6-(trifluoromethoxy)-1H-indole-2-carboxylic acid] |  |
| > 1000 | > 5000 | > 200 | NC(=O)c1cc2ccc(OC(F)(F)F)cc2n1-c1cccc([C@@H](N)CC(=O)O)c1 [Compound 40, (S)-3-amino-3-(3-(2-carbamoyl-6-(trifluoromethoxy)-1H-indol-1-yl)phenyl)propanoic acid] |  |
| > 1000 | > 5000 | > 200 | N[C@@H](CC(=O)O)c1cccc(-n2c(C(=O)O)cc3ccc(OC(F)(F)F)cc32)c1 [Compound 41, (S)-1-(3-(1-amino-2-carboxyethyl)phenyl)-6-(trifluoromethoxy)-1H-indole-2-carboxylic acid] |  |
| > 1000 | > 5000 | > 200 | NC(=O)c1cc2ccc(OC(F)(F)F)cc2n1-c1cccc([C@H](N)CC(=O)O)c1 [Compound 42, (R)-3-amino-3-(3-(2-carbamoyl-6-(trifluoromethoxy)-1H-indol-1-yl)phenyl)propanoic acid] |  |
| > 1000 | > 5000 | > 200 | N[C@H](CC(=O)O)c1cccc(-n2c(C(=O)O)cc3ccc(OC(F)(F)F)cc32)c1 [Compound 43, (R)-1-(3-(1-amino-2-carboxyethyl)phenyl)-6-(trifluoromethoxy)-1H-indole-2-carboxylic acid] |  |
| > 1000 | > 5000 | < 20 | NC(=O)c1cc2ccc(OC(F)(F)F)cc2n1-c1cccc(SCC(=O)O)n1 [Compound 44, 2-((6-(2-carbamoyl-6-(trifluoromethoxy)-1H-indol-1-yl)pyridin-2-yl)thio)acetic acid] |  |
| > 1000 | > 5000 | 20 to 50 | NC(=O)c1cc2ccc(OC(F)(F)F)cc2n1-c1cccc(S(=O)(=O)CC(=O)O)n1 [Compound 45, 2-((6-(2-carbamoyl-6-(trifluoromethoxy)-1H-indol-1-yl)pyridin-2-yl)sulfonyl)acetic acid] |  |
| > 1000 | > 5000 | 50 to 200 | NC(=O)c1cc2ccc(OC(F)(F)F)cc2n1-c1cccc(C(F)(F)CO)c1 [Compound 46, 1-(3-(1,1-difluoro-2-hydroxyethyl)phenyl)-6-(trifluoromethoxy)-1H-indole-2-carboxamide] |  |

| Structure (SMILES) | IC50 [1] [nM] | IC50 [2] [nM] | IC50 [3, 4] [nM] | IC50 [3, 5] [nM] |
| --- | --- | --- | --- | --- |
| NC(=O)c1[se]c2ccc(OC(F)(F)F)cc2c1-c1cccc(CCC(=O)O)c1 [Compound 29, 3-(3-(2-carbamoyl-5-(trifluoromethoxy)benzo[b]selenophen-3-yl)phenyl)propanoic acid] | 500 to 1000 | 1500 to 5000 |  | 50 to 200 |
| NC(=O)c1[se]c2ccc(OC(F)(F)F)cc2c1-c1cccc(C2(CC(=O)O)CC2)c1 [Compound 34, 2-(1-(3-(2-carbamoyl-5-(trifluoromethoxy)benzo[b]selenophen-3-yl)phenyl)cyclopropyl)acetic acid] | > 1000 | 1500 to 5000 |  | 20 to 50 |
